Seven molecules from patent US20250170027A1, “COLLAGEN CROSS-LINKER AND USES THEREOF” (The Curators of the University of Missouri, priority 2022, published 2025) can be followed below.

One data set concerns mammalian collagen. Description: Application of crosslinkers to mammalian collagen (biostability, general statement). The conditions noted are these: application of any one of the crosslinkers to mammalian collagen.
The subject of data set [1] is Clostridium histolyticum collagenase. The settings on record: after 1 hour incubation at 37° C.; 0.2 U/ml collagenase; EDTA 5 mM; FIG. 3.
Experimental: The direct inactivation of collagenase by TRI was also determined using a collagenase assay kit. Assays were performed in 96-well microplates with 0.2 U/ml Clostridium histolyticum collagenase incubated with the treatment solutions for up to 24 h according to the manufacturer's instructions. The well-known collagenase inhibitor 5 mM EDTA was used as a positive control. A group without any treatment was included as a negative control. The fluorescence of kinetic of inactivation was monitored at 1, 2, 4, 16 and 24 h of incubation at 37° C. in triplicate at 490 nm/520 nm. Fluorescence at the different time points was determined by subtracting background fluorescence. The collagenase activity was expressed in arbitrary fluorescence units. Then, the activity was calculated in percentage of inhibition according to the untreated negative control (presumed 100% collagenase activity) after 4 h of incubation. Statistical analysis was performed by one-way ANOVA and Games Howell's post hoc (α=0.05).
Another data set has as its system dentin collagen. Description: Biodegradation of dentin collagen by exogenous collagenase (weight loss, HYP release). In kind it is biochemical, human. The settings on record: crosslinker 0.6 wt % in EtOH, 60 s or 1 h treatment; 0.1% collagenase 1 h at 37° C.; FIG. 2A. Here is the method: Following the treatment and rinse, the dentin collagen films were dried (48 h under vacuum) and then exposed to 0.1% collagenase (type I, from Clostridium histolyticum, ≥125 U/mg) degradation for 1 h at 37° C. (n=6×10 films per group). The remnant films were dried as previously described and compared the weight percent before and after collagenase digestion for weight loss analysis (WL). The digestion solution was collected and processed to quantify the amount of HYP released. This processing comprised exposure to 5% Ehrlich's reagent, which binds to HYP and produces a colored solution, the color intensity of which is proportional to the concentration of HYP. Colorimetry was performed by measuring the absorbance at 555 nm in a microplate reader, thereby calculating the HYP μg/mg of collagen during digestion. […] All data for weight loss are separately shown after […] for each sample.

Data set [2] deals with L929 cells. Description: Effect of direct treatment on cell proliferation (MTS assay). In kind it is cell-based. The conditions noted are these: treatment solutions diluted 1:1000, 1:2000, 1:4000 (v/v) in culture medium; FIG. 5. The method, then:
(§1) The cells were seeded onto 24 and 96-well plates at a density of 2×10^4 cells/cm^2 and incubated at 37° C. in 5% CO2 and 95% relative humidity until the monolayer cells spread over the bottom of the wells.
The direct treatments were conducted on 96-well plates with replacement of original culture medium with culture medium containing different diluted treatment solutions at ratios of 1:1000, 1:2000 and 1:4000 (v/v) and a control group containing only original culture medium. Cell proliferation was assessed with the MTS assay CellTiter 96 AQueous One Solution Cell Proliferation Assay following protocol guidelines specified by the manufacturer. Absorbance was measured using a multimode microplate reader at 460/30 nm at 2 h after addition of MTS reagent. Statistical analysis was performed using a two-way ANOVA for each used concentration followed by Tukey's post hoc (α=0.05).
On the technique in general: Tetrazolium assays rely on reduction of a dye to a coloured formazan, in cell work by metabolically active cells.

For data set [3], the system named is L929 cells. In kind it is cell-based. The settings on record: dentin disks treated 1 min; 1 or 3 days exposure; FIGS. 6, 7. The method, then: as §1
Twenty-four teeth were sectioned obtaining 24-dentin disks (approximately 6-mm in diameter). The dentin disks were superficially etched using 32% phosphoric acid gel for 15 s on each side, rinsed thoroughly and placed in 100 μL of treatment solutions. After 1 min of treatment, the treated dentin disks were rinsed in sterile distilled water for 30 s. Treated dentin disks were immediately placed on a permeable polycarbonate membrane insert (6.5 mm in diameter, 3.0 μm pore size) above of cultured cells and covered with 100 μL of medium. After incubation, cell viability assay was used to stain live cells with calcein-AM and dead cells with ethidium homodimer. To distinguish overlapped cells in cell counting, Hoechst 33342 was used as a cell-permeant nuclear counterstain, following the guidelines specified by the manufacturer. Cells were imaged using a fluorescent High Content Microscope with 20× magnification. Cell counting was performed using ImageJ (NIH Image J1.8.0). The percentage of cell proliferation and dead cells were statistically compared to 1-day control using one-way ANOVA and Dunnett's test (α=0.05).

Consider `CCOC(=O)c1cc(C(=O)NCCc2ccc(O)c(O)c2)cc(C(=O)NCCc2ccc(O)c(O)c2)c1` [TRI-3], for which the “biostability of mammalian collagen” value in the data set on mammalian collagen is on record as “improves the biostability”.
Regarding `O=C(O)CN(CCN(CC(=O)O)CC(=O)O)CC(=O)O` [EDTA, ethylenediaminetetraacetic acid], the collagenase inhibition entry in data set [1] is “some collagenase inhibition”.
On to `O=C(O)c1cc(C(=O)NCCc2ccc(O)c(O)c2)cc(C(=O)NCCc2ccc(O)c(O)c2)c1` [TRI-2], for which the “biostability of mammalian collagen” value in the data set with mammalian collagen is reported as “improves the biostability”.
Turning to `COC(=O)C1=CO[C@@H](O)[C@@H]2C(CO)=CC[C@H]12` [GEN, genipin], in the data set with dentin collagen, the “weight % change (weight loss) before and after collagenase digestion” value is recorded as “not faring much better”.
For `O=C(NCCc1ccc(O)c(O)c1)c1cc(C(=O)NCCc2ccc(O)c(O)c2)cc(C(=O)NCCc2ccc(O)c(O)c2)c1` [TRI-1], the “biostability of mammalian collagen” value in the data set with mammalian collagen is listed as “improves the biostability”.
For the molecule `O=c1c(O)c(-c2ccc(O)c(O)c2)oc2cc(O)cc(O)c12` [QC, quercetin], the “weight % change (weight loss) before and after collagenase digestion” value in the data set with dentin collagen was “not faring much better”.
With `O=CCCCC=O` [GA, glutaraldehyde], the “cell proliferation (MTS absorbance) compared to the control sample” value with L929 cells [2] is “high cytotoxicity”. Moreover, the “cytotoxic effect on L929 cells” value with L929 cells [3] is “cytotoxic”.
